This is an account of results in paper PMC5940903, “Supramolecular Kandinsky circles with high antibacterial activity” (Nature Communications, 2018).

Each structure is given as a SMILES string. Where two headings read alike, the source gives them in different places.

In data set [1] the test system is Methicillin-resistant S. aureus (MRSA, ATCC 33591). The experiment in a line: microbe, parasite or virus in culture. To be noted: for MIC: Staphylococcus aureus, read-out: MRSA (MIC). It counts as cell-based, Staphylococcus aureus. As for the experimental part:
Therefore, increasing the solubility of high generation of nested hexagons may enable more efficient studies in biological media and translate to effective antimicrobial activity. […] In addition, the smaller size of G1 was expected to lead to weaker interaction with bacterial membranes.
(§1) Minimum inhibitory concentrations (MICs) against MRSA.4 The antimicrobial activity of the compounds are tested against Methicillin-resistant S. aureus (MRSA, ATCC 33591). Briefly, a single colony of MRSA bacterium was inoculated in 3 mL TSB medium and allowed to grow overnight at 37 °C. The bacteria culture was then diluted at 1:100 and the bacteria were able to re-grow to mid-logarithmic phase in 6-8 h. Next, 50 µL compounds in 2-fold serially diluted solution with the concentrations of 0.1-25 µg/mL were added the 96-well plate containing 50 µL of bacteria suspension (1 × 10^6 CFU/mL) in each well. Following that, the plate was incubated at 37 °C for 16 h, and the absorption of those wells at 600 nm wavelength was read on a Biotek Synergy H1 microtiter […]
growth of MRSA in 24 h. […]

A further data set has as its system E. coli. Description: MIC against Gram-negative bacterium E. coli. It counts as cell-based.
Data set [2] has as its system human red blood cells (hRBCs). Description: Hemolytic assay. It counts as cell-based. To be noted: 37 °C, 1 h. How it is done: as §1
growth of MRSA in 24 h. The experiment were repeated at least three times with duplicates each […]
Hemolytic assay.4 The freshly drawn human red blood cells (hRBCs) were washed with 1× PBS buffer multiple times and centrifuged at 3500 rpm for 10 min, until the supernatant became clear. Next, the supernatant was removed, and the RBCs were diluted into 5% v/v suspension. The aliquots of suspension (50 µL) were then incubated with compounds at various concentrations in 2-fold serially diluted solution (50 µL) at 37 °C for 1 h. The mixture was centrifuged at 3500 rpm for 10 min and the supernatant was collected. Following that, 100 µL PBS was added to 30 µL of the supernatant, and the absorbance of the solution at 540 nm was read on a Biotek Synergy H1 plate reader. 2% Triton X-100 was used as the positive control and 1× PBS was used the negative control.
The hemolysis activity was calculated by the formula % hemolysis =
(Abssample-AbsPBS)/(AbsTriton-AbsPBS)×100%. The experiment was repeated at least three times with […]
Conductance measurement on the planar lipid bilayer. The lipids
1,2-dipalmitoyl-sn-glycero-3-phosphatidylglycerol (DPPG, Avanti Polar Lipids) and 1,2-dipalmitoyl-sn-glycero-3-phosphatidylethanolamine (DPPE, Avanti Polar Lipids) were mixed in chloroform (9:1 in molar ratio, 10 mg/mL, 20 µL). […]

Where [3] appears, read: Escherichia coli, read-out: E. coli (MIC).

Take `CCCCCCCCCC(=O)N[C@@H](Cc1c[nH]c2ccccc12)C(=O)N[C@H](CC(N)=O)C(=O)N[C@@H](CC(=O)O)C(=O)N[C@@H]1C(=O)NCC(=O)N[C@@H](CCCN)C(=O)N[C@@H](CC(=O)O)C(=O)N[C@H](C)C(=O)N[C@@H](CC(=O)O)C(=O)NCC(=O)N[C@H](CO)C(=O)N[C@@H]([C@H](C)CC(=O)O)C(=O)N[C@@H](CC(=O)c2ccccc2N)C(=O)O[C@@H]1C` [Daptomycin, daptomycin, reference compound]: the “MRSA (MIC)” value in data set [1] (ATCC 33591) is 0.5 µg/mL.

Turning to `CCCCCCOc1c(-c2ccc(-c3cc(-c4ccccn4)nc(-c4ccccn4)c3)cc2)c(OCCCCCC)c(-c2ccc(-[n+]3c(-c4ccc(-c5ccc(-c6cc(-c7ccccn7)nc(-c7ccccn7)c6)cc5)cc4)cc(-c4ccc(C(C)(C)C)cc4)cc3-c3ccc(-c4ccc(-c5cc(-c6ccccn6)nc(-c6ccccn6)c5)cc4)cc3)cc2)c(OCCCCCC)c1-c1ccc(-c2cc(-c3ccccn3)nc(-c3ccccn3)c2)cc1` [L2], the MIC (in data set [1]; in the data set with E. coli (setting [3])) was more than 100 µg/mL throughout. Moreover, the “Hemolysis (H50)” value in data set [2] is more than 250.

As to `CCCCCCOc1c(-c2ccc(N)cc2)c(OCCCCCC)c(-c2ccc(-c3cc(-c4ccccn4)nc(-c4ccccn4)c3)cc2)c(OCCCCCC)c1-c1ccc(-c2cc(-c3ccccn3)nc(-c3ccccn3)c2)cc1` [L1], the MIC in data set [1] (MRSA ATCC 33591, TSB medium, 37 °C) is more than 100 µg/mL; in the data set on E. coli (Escherichia coli; read-out: E. coli (MIC)), more than 100 µg/mL. The “Hemolysis (H50)” value in data set [2] is more than 250.

As for `CCCCCCOc1c(-c2ccc(-c3cc(-c4ccccn4)nc(-c4ccccn4)c3)cc2)c(OCCCCCC)c(-c2ccc(-[n+]3c(-c4ccc(-c5ccc(-c6cc(-c7ccccn7)nc(-c7ccccn7)c6)cc5)cc4)cc(-c4ccc(-[n+]5c(-c6ccc(-c7ccc(-c8ccc(-c9cc(-c%10ccccn%10)nc(-c%10ccccn%10)c9)cc8)cc7)cc6)cc(-c6ccc(C(C)(C)C)cc6)cc5-c5ccc(-c6ccc(-c7ccc(-c8cc(-c9ccccn9)nc(-c9ccccn9)c8)cc7)cc6)cc5)cc4)cc3-c3ccc(-c4ccc(-c5cc(-c6ccccn6)nc(-c6ccccn6)c5)cc4)cc3)cc2)c(OCCCCCC)c1-c1ccc(-c2cc(-c3ccccn3)nc(-c3ccccn3)c2)cc1` [L3], the MIC (in data set [1]; with E. coli (setting [3])) was more than 100 µg/mL in each case. Also, the “Hemolysis (H50)” value in data set [2] is more than 250.
